Test results published in patent US9433663B2, “Mobilization of hematopoietic stem cells” (Children's Hospital Medical Center, priority 2008, dated 2016).

B1: G-CSF: growth factor, currently available HSPC mobilization agent (protein, UniProt P09919 31-207, looked up)
Granulocyte …: TPLGPASSLPQSFLLKCLEQVRKIQGDGAALQEKLVSECATYKLCHPEELVLLGHSLGIPWAPLSSCPSQALQLAGCLSQLHSGLFLYQGLLQALEGISPELGPTLDTLQLDVADFATTIWQQMEELGMAPALQPTQGAMPAFASAFQRRAGGVLVASHLQSFLEVSYRVLRHLAQP

What was measured:
Fancc−/− mice [1] = assay: Example 10 preparative regimen for BM transplantation in Fancc−/− mice; type: in vivo; conditions: preconditioning before BM transplantation
Protocol: Four preparative regimens before BM transplantation on Fancc−/− mice are used to evaluate the capacity of CASIN as a preconditioning agent: (1) Control group; (2) CY group: a single dose of 40 mg/kg CY intraperitoneally; (3) CASIN group: 2.5 mg/Kg; (4) combination of CASIN and CY: one injection of CASIN is given in combination with reduced doses of CY.
Fancc−/− mice are preconditioned with each of these four regimens, and 4×10^7 BM cells from congenic strain mice are transplanted into preconditioned mice by tail vein injection. Mice that underwent transplantation are bled every four weeks to monitor the chimerism of donor-derived cells in PB. And at 3 m, the mice are sacrificed to evaluate the engraftment of donor-derived cells in BM.

C57Bl/6 mice = assay: mobilization of colony-forming progenitors to peripheral blood, CFU-C assay; type: in vivo; conditions: C57Bl/6 mice, FIG. 8b
Protocol: Whether CASIN administration can induce mobilization of HSC/Ps to peripheral blood of C57Bl/6 mice, mimicking the phenotype observed in Cdc42 conditional knockout mice, was evaluated. First of all, mobilization of hematopoietic progenitor cells was examined by CFU-C assays functionally (FIG. 3a). […] Secondarily, to further explore the ability of CASIN to mobilize LT-HSC which is crucial for long-term repopulation of the mobilized cells, serial transplantations were carried out, where 20 million PB from CASIN-mobilized C57Bl/6 mice was transplanted into primary recipient of NOD/SCID mice, and subsequent secondary and tertiary transplants were finished as well using prior BMs (FIG. 3c). Donor chimerisms were assessed by using H2K^b congenic marker which is positive for donors of C57Bl/6 strain and negative for recipients of NOD/SCID strain. […] Therefore, the studies show CASIN can efficiently mobilize colony-forming hematopoietic progenitors and LT-HSCs with self-renewal and multi-lineage differentiation capacity. Thirdly, to further investigate the potential of CASIN to vacate the BM niche after mobilization, six-color staining of the BM cells was performed from C57Bl/6 mice with or without CASIN treatment followed by FACS analysis. […] Therefore, a transient decrease in BM and a concomitant increase in peripheral organs of HSCs would be beneficial to facilitating the subsequent HSC transplantation.
To determinate the hematopoietic progenitor content in the PB of mobilized C57Bl/6 mice, colony-forming unit assay was performed as described previously. Briefly, 200 ul PB was plated in triplicate into methylcellulose (MethocultM3434; StemCell Technology, Vancouver, BC, Canada). Colonies were then counted 7 d later.

donor cell engraftment = assay: Example 9 mobilization as preparative regimen for HSC transplantation; type: in vivo, mice; conditions: compared to the non-mobilization control
Protocol: If the microenvironmental niches are vacated after CASIN exposure, donor HSCs might engraft better in hosts treated with a mobilizing agent such as CASIN compared with non-mobilized controls. To test this, bone marrow transplantation is performed on recipient mice which are pre-conditioned with CASIN. […] Additionally, AMD3100, G-CSF, and control medium are used in parallel with CASIN as controls.
Briefly, mice are treated with CASIN, and 4×10^7 donor bone marrow cells from congenic mouse strain are transplanted 48 h later. Donor cell engraftment is assayed at 3 months using the congenic markers by flow cytometry.
Additionally, multiple cycles of mobilization with CASIN may increase the number of available niches. Therefore, this study investigates whether repeated cycles of CASIN mobilization, each followed by donor cell transplantation, could result in increased engraftment. Briefly, mice receive one weekly injection of CASIN on 3 consecutive weeks and 4×10^7 donor marrow cells are transplanted 48 hours after each mobilization. Control animals also received 3 weekly infusions of 4×10^7 donor marrow cells but no CASIN. And the donor engraftment is assayed at 3 months after transplantation as well.

Fancc−/− mice [2] = assay: Example 10 HSC/P mobilization in Fancc−/− mice; conditions: mouse, in vivo
Protocol: The effects of CASIN on HSC/P mobilization in Fancc−/− mice are investigated under four groups in parallel with WT mice: (1) Control group; (2) G-CSF group: 2.5 μg G-CSF per mouse, twice a day for 4 d120; (3) CASIN group: 2.5 mg/Kg; (4) combination of CASIN and G-CSF: one injection of CASIN is given 40 h before the end of 4 d G-CSF administration.
Fancc−/− or WT mice are mobilized with regimens corresponding to the four experimental groups. Then PB are harvested by cardiac puncture. Phenotypically, the absolute number and percentage of HSC/Ps in PB after mobilization are determined as those of LSK (Lin− Sca+ c-Kit+) cells by flow cytometry. Functionally, CFU-C assay is performed in triplicate for each mouse by using PB of mice from different experimental groups, and CFU-GM, CFU-GEMM, BFU-E, and CFU-E are distinguished by morphology and using cytokine combinations. Furthermore, the long-term repopulation capacity of the mobilized HSCs is evaluated using a competitive repopulating assay and subsequent secondary transplantation as discussed above.

| Molecule | repopulation and engraftment of donor derived cells in PB and BM of Fancc−/− recipient mice (Fancc−/− mice [1]) | mobilization of colony-forming progenitors (C57Bl/6 mice) | engraftment of donor cells in pre-conditioned recipients (donor cell engraftment) | mobilization of HSC/Ps (LSK cells, progenitor colonies) in Fancc−/− mice (Fancc−/− mice [2]) |
| --- | --- | --- | --- | --- |
| O=P1(N(CCCl)CCCl)NCCCO1 (stereo not drawn) [CY, reference compound] | comparable engraftment and repopulation | – | – | – |
| c1cc(CN2CCCNCCNCCCNCC2)ccc1CN1CCCNCCNCCCNCC1 [AMD3100, reference compound] | – | can mobilize colony-forming progenitors | significantly increased engraftment of donor cells | – |
| B1 | – | can mobilize colony-forming progenitors | significantly increased engraftment of donor cells | less effective mobilizer of HSC/Ps in Fancc−/− mice than in WT mice |
